Reference: patent US9487540B2, “Compound for inhibiting the growth and proliferation of human liver cancer cells and method for synthesizing it” (priority 2015, dated 2016)
Values after ≈ are worked out from the molar mass of the structure shown.

What was measured:
[1] = Cytotoxicity evaluation using viability assay (crystal violet colorimetric method); format: cell-based; conditions: human, HepG2 cells; for viability at 48 h, 0.78 μg: HepG2, sample conc. 0.78 μg
[2] = as above; format: cell-based, human; conditions: human, HepG2 cells, 48 hours; for viability at 48 h, 1.56 μg: HepG2, sample conc. 1.56 μg; for viability at 48 h, 3.125 μg: HepG2, sample conc. 3.125 μg; for viability at 48 h, 6.25 μg: HepG2, sample conc. 6.25 μg; for viability at 48 h, 12.5 μg: HepG2, sample conc. 12.5 μg; for viability at 48 h, 25 μg: HepG2, sample conc. 25 μg; for viability at 48 h, 50 μg: HepG2, sample conc. 50 μg
From the text: (§1) HepG2 cells (human cell line of a well differentiated hepatocellular carcinoma isolated from a liver biopsy of a person) were obtained from the American Type Culture Collection (ATCC). The chemicals used were: Dimethyl sulfoxide (DMSO), crystal violet and trypan blue dye, purchased from Sigma, St. Louis, Mo., USA; DMEM, RPMI-1640, FBS, HEPES buffer solution, L-glutamine, gentamycin and 0.25% Trypsin-EDTA, purchased from BioWhittaker®, Lonza, Belgium; and Crystal violet stain (1%), composed of 0.5% (w/v) crystal violet and 50% methanol, made up to volume with ddH20 and filtered through a Whatmann No. I filter paper.
(§2) In the cytotoxicity assay, the cells were propagated in Dulbecco's modified Eagle's medium (DMEM) supplemented with 10% heat-inactivated fetal bovine serum, 1% L-glutamine, HEPES buffer and 50 μg/ml gentamycin. All cells were maintained at 37° C. in a humidified atmosphere with 5% CO2 and were subcultured two times a week.
(§3) Cell toxicity was monitored by determining the effect of the test samples on cell morphology and cell viability.
(§4) For cytotoxicity assay, the cells were seeded in a 96-well plate at a cell concentration of 1×10^4 cells per well in 100 μl of growth medium. Fresh medium containing different concentrations of the test sample was added after 24 hours following seeding. Serial two-fold dilutions of the tested chemical compound were added to confluent cell monolayers dispensed into 96-well, flat-bottomed microtiter plates (Falcon, N.J., USA) using a multichannel pipette. The microtiter plates were incubated at 37° C. in a humidified incubator with 5% CO2 for a period of 48 hours. Three wells were used for each concentration of the test sample. Control cells were incubated without test sample and with or without DMSO. The little percentage of DMSO present in the wells (maximal 0.1%) was found not to affect the experiment. After incubation of the cells for 24 hours at 37° C., various concentrations of sample (50, 25, 12.5, 6.25, 3.125 & 1.56 μg) were added, and the incubation was continued for 48 hours and viable cells yield was determined by a colorimetric method.
(§5) In brief, after the end of the incubation period, media were aspirated and the crystal violet solution (1%) was added to each well for at least 30 minutes. The stain was removed and the plates were rinsed using tap water until all excess stain was removed. Glacial acetic acid (30%) was then added to all wells and mixed thoroughly and then the absorbance of the plates was measured after being gently shaken on a Microplate reader (TECAN, Inc.), using a test wavelength of 490 nm. All results were corrected for background absorbance detected in wells without added stain. Treated samples were compared with the cell control in the absence of the tested compound. All experiments were carried out in triplicate.
(§6) The cell cytotoxic effect of tested compound was calculated according to the rapid colorimetric assay for cellular growth and survival: application to proliferation and cytotoxicity assay, published by T. Mosmann in the Journal of Immunology Methods, 1983, 65:55-63; and the antiviral activity of medicinal plants of Nilgriris, published by P. Vijayan et al. in the Indian Journal of Medical Research, 2004, 120: 24-29.

[3] = system: HepG2 (Hepatocellular carcinoma cells); assay: as above; format: cell-based, human; conditions: Homo sapiens, 48 hours incubation, read-out: inhibition concentration value (IC50)
From the text: as §1, §2, §3, §4, §5, §6

Row | melting point | Compound | viability at 48 h, 0.78 μg [1] | viability at 48 h, 1.56 μg [2] | viability at 48 h, 3.125 μg [2] | viability at 48 h, 6.25 μg [2] | viability at 48 h, 12.5 μg [2] | viability at 48 h, 25 μg [2] | viability at 48 h, 50 μg [2] | viability at 48 h, 0.39 μg ([1]; HepG2, sample conc. 0.39 μg) | IC50 [3]
1 | 298 °C | O=c1[nH]c(Nc2ccc([N+](=O)[O-])cc2)nc2sc3c(c12)CCCCC3 (hydrate or solvate) [Compound III, 2-((4-Nitrophenyl)amino)-6,7,8,9-tetrahydro-3H-cyclohepta[4,5]thieno[2,3-d]pyrimidin-4(5H)-one] |  |  |  |  |  |  |  |  | 
2 |  | COc1cccc2c1C(=O)c1c(O)c3c(c(O)c1C2=O)C[C@@](O)(C(=O)CO)C[C@@H]3O[C@H]1C[C@H](N)[C@H](O)[C@H](C)O1 [Doxorubicin, reference compound] | 57.4% | 48.2% | 30.3% | 21% | 16.9% | 14.3% | 10.9% |  | 
3 |  | O=c1[nH]c(Nc2ccc([N+](=O)[O-])cc2)nc2sc3c(c12)CCCCC3 [Compound III, 2-((4-Nitrophenyl)amino)-6,7,8,9-tetrahydro-3H-cyclohepta[4,5]thieno[2,3-d]pyrimidin-4(5H)-one] | 47.1% | 36.9% | 23.7% | 18.5% | 14.4% | 10.2% | 6.32% | 60.8% | 0.7 µg/mL (≈ 1.96 µM)
